Measured values as given in ChEMBL document CHEMBL1139192, “Novel bis(indolyl)maleimide pyridinophanes that are potent, selective inhibitors of glycogen synthase kinase-3” (Bioorg Med Chem Lett, 2007).

Columns and labels:
[1] = target: T1, Protein kinase C zeta type (Homo sapiens) (UniProt Q05513); experiment: Residual activity of human PKCzeta at 1 uM relative to control
T1 sequence (whole entry): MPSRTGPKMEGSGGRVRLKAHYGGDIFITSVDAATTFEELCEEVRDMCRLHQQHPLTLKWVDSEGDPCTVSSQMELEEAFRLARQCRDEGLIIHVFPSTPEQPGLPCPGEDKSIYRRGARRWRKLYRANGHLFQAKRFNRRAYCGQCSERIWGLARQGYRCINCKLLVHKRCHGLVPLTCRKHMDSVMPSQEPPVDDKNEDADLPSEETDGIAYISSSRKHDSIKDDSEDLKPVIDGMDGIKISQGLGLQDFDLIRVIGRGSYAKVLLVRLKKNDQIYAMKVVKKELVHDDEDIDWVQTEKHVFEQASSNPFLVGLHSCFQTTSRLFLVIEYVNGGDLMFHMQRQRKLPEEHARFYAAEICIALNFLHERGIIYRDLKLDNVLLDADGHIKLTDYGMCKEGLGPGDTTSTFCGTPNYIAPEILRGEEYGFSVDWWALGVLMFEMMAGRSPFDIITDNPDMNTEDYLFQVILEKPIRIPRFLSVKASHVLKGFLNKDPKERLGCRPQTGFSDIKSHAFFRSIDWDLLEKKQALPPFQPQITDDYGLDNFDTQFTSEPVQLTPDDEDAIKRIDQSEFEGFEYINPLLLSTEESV

[2] = target: T2, Protein kinase C iota type (Homo sapiens) (UniProt P41743); experiment: Inhibition of human PKCiota at 1 uM relative to control; values are per cent of control
T2 sequence (whole entry): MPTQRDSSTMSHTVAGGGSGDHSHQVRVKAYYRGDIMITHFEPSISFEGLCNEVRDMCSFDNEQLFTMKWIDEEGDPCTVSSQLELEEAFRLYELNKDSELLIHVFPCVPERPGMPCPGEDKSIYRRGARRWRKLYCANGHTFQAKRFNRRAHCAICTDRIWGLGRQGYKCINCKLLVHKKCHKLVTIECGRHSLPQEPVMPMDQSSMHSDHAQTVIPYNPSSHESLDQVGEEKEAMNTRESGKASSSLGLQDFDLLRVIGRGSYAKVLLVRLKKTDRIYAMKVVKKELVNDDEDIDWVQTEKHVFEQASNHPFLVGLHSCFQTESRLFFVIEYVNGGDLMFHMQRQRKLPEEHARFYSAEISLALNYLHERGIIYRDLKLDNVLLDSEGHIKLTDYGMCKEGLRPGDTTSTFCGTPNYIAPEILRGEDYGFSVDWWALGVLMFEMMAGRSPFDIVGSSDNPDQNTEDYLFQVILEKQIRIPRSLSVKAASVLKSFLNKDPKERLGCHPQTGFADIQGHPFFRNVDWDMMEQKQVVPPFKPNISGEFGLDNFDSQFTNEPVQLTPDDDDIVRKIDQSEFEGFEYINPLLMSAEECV

[3] = target: Tyrosine-protein kinase BTK (Homo sapiens) (UniProt Q06187); experiment: Inhibition of human BTK at 1 uM relative to control; values are per cent of control
Chain of Tyrosine-protein kinase BTK (Homo sapiens) (Q06187 whole entry): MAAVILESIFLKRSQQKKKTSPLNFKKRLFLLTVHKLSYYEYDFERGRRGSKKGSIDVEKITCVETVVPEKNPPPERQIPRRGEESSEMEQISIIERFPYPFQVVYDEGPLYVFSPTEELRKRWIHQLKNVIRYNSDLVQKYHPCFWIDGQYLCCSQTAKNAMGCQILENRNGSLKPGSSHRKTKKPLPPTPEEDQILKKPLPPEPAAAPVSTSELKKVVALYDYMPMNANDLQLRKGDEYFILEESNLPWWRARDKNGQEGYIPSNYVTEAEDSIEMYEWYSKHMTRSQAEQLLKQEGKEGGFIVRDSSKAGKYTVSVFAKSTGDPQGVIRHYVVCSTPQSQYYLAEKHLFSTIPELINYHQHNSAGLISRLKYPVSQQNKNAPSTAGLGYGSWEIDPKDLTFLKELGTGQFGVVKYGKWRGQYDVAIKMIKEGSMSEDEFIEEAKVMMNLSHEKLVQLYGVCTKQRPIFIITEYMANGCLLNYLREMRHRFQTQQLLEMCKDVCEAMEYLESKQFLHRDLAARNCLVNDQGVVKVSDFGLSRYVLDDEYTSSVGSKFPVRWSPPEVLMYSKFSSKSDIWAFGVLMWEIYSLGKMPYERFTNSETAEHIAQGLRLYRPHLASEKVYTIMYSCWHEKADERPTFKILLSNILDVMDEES

[4] = target: T3, Ephrin type-B receptor 4 (Homo sapiens) (UniProt P54760); experiment: Residual activity of human EphB4 at 1 uM relative to control
T3 sequence (whole entry): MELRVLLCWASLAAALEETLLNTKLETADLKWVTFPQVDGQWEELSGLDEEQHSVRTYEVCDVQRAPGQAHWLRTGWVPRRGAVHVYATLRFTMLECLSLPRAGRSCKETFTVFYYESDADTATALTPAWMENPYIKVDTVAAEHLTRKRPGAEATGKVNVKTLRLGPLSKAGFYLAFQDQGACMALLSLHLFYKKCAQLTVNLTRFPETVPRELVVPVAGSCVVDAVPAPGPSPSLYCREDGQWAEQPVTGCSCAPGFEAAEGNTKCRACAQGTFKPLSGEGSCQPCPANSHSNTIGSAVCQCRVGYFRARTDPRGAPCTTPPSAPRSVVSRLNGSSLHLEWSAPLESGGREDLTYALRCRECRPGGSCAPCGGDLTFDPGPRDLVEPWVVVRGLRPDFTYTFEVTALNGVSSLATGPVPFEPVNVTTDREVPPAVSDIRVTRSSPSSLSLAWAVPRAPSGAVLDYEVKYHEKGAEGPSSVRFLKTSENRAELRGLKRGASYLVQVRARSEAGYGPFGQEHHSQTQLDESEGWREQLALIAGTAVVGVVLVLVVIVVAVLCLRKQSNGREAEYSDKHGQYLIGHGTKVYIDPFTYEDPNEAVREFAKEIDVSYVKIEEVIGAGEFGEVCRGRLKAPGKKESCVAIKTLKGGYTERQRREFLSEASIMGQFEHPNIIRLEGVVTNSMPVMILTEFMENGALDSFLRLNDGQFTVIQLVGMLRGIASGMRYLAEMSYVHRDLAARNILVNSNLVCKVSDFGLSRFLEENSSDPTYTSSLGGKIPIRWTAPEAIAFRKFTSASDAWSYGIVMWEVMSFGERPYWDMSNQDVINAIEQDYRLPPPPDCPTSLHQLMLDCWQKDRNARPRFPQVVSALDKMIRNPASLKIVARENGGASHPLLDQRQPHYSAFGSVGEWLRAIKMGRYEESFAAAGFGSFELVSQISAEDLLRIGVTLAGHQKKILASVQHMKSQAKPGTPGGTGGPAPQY

SMILES: CN(C)c1cc2cc(n1)CCCn1cc(c3ccccc31)C1=C(C(=O)NC1=O)c1cn(c3ccccc13)CCC2
- residual activity [1]: 105%
- residual activity [2]: 109%
- residual activity [3]: 106%
- residual activity [4]: 103%

SMILES: O=C1NC(=O)C2=C1c1cn(c3ccccc13)CCCc1cc(nc(N3CCCC3)c1)CCCn1cc2c2ccccc21
- residual activity [1]: 99%
- residual activity [2]: 102%
- residual activity [3]: 106%
- residual activity [4]: 109%

SMILES: O=C1NC(=O)C2=C1c1cn(c3ccccc13)CCCc1ccc(c(N3CCCC3)n1)CCCn1cc2c2ccccc21
- residual activity [1]: 116%
- residual activity [2]: 97%
- residual activity [3]: 104%
- residual activity [4]: 100%

SMILES: CN(C)c1nc2ccc1CCCn1cc(c3ccccc31)C1=C(C(=O)NC1=O)c1cn(c3ccccc13)CC2
- residual activity [1]: 98%
- residual activity [2]: 85%
- residual activity [3]: 105%
- residual activity [4]: 89%
